For one assay, the system named is human small lung cancer cell line H2171. The assay is described as follows: Cell Viability Assay (ATPlite). It is filed as cell-based. Conditions: NCI-H2171, 72 h, H2171 cells, incubated for three days, ATPlite readout. On the procedure: Compounds of the invention were assayed for cell viability using the human small lung cancer cell line H2171 as described in the following protocol. Cells were counted and adjusted to 20,000 cells/mL. Using a Biotek EL406, 50 μL of cells in media were distributed into 384 well white plates from Thermo. Immediately after plating, compound in DMSO was distributed to plates. Compounds were added to plates using a 50 nL 384 well pin transfer manifold on a Janus workstation. Stocks were arrayed in 10 point dose response in DMSO stock in 384 well Greiner compound plates. After the addition of compounds, plates were incubated for three days in a 37° C. incubator. Cell viability was read out using ATPlite from Perkin Elmer. Lyophilized powder was resuspended in lysis buffer and diluted 1:2 with deionized water. 25 μL of this solution was added to each well using the Biotek liquid handler. Plates were incubated for 15 minutes at room temperature before signal was read on an Envision Plate Reader. The data from this assay are summarized in Table 3 below (H2171 activity).
In general terms: ATP-based viability assays read luminescence as a measure of living cells.
Turning to `CC(=O)Nc1sc2c(c1-c1nc3cnccc3s1)C[C@@H](C)N[C@@H]2C` (single isomer, unassigned) [Compound 110], the IC50 (commonly the concentration that gives 50% inhibition) is < 500 nM. For `CC(=O)Nc1sc2c(c1-c1nc3cnccc3s1)C[C@H](C)N[C@H]2C` (single isomer, unassigned) [Compound 111], the IC50 was < 500 nM.

Regarding `CCN1C(C)c2sc(NC(C)=O)c(-c3nc4c(C(F)F)nccc4s3)c2C[C@H]1C` (stereo in doubt) [Compound 235, N-((5R,7R)-3-(4-(difluoromethyl)thiazolo[4,5-c]pyridin-2-yl)-6-ethyl-5,7-dimethyl-4,5,6,7-tetrahydrothieno[2,3-c]pyridin-2-yl)acetamide], the IC50 was < 500 nM. Consider `CC(=O)Nc1sc2c(c1-c1nc3cnccc3s1)CCNC2` [Compound 100, N-(3-(Thiazolo[4,5-c]pyridin-2-yl)-4,5,6,7-tetrahydrothieno[2,3-c]pyridin-2-yl)acetamide], for which the IC50 fell in the range of 500 to 5000 nM. With `CC(=O)Nc1sc2c(c1-c1nc3cccnc3s1)CCNC2` [Compound 101, N-(3-(thiazolo[5,4-b]pyridin-2-yl)-4,5,6,7-tetrahydrothieno[2,3-c]pyridin-2-yl)acetamide], the IC50 is < 500 nM. `CC(=O)Nc1sc2c(c1-c1nc3cnccc3s1)C[C@H](C)N[C@@H]2C` [Compound 236]: the IC50 is < 500 nM.

For the next assay, the target named is T1, c-Myc/Max/Ebox DNA (Homo sapiens, UniProt P01106).
T1 construct: his6 (cleaved yes)
T1 sequence (P01106 whole entry): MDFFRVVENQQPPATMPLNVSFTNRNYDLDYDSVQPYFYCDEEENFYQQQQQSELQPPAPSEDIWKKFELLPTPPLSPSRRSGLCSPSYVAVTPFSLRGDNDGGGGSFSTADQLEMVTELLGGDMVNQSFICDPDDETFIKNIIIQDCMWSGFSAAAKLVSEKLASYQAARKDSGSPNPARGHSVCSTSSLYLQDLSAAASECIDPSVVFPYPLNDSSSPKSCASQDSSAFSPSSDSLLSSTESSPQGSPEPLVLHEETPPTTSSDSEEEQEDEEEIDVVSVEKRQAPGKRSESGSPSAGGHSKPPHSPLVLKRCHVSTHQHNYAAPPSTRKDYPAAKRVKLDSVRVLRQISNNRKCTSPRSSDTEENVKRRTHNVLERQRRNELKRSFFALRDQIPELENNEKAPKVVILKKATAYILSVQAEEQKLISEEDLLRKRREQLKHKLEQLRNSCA
The assay is described as follows: c-Myc/Max/Ebox DNA AlphaScreen Assay. In kind it is binding. Particulars: free c-Myc 20 nM, his6-Max 5 nM, biotinylated Ebox oligo 10 nM, 2 hour incubation. On the procedure: Compounds of the invention were assayed for c-Myc/Max/EBox activity as described in the following protocol. Human his6-c-Myc and his6-Max were used with biotinylated DNA containing a single Ebox sequence (biotin[…]) purchased from MWG Operon. Free c-Myc was generated from his6-c-Myc through thrombin cleavage of the his6 tag. For 384-well plate assays, 10 μL of a 2× solution of free c-Myc (20 nM final), Ni^2+ coated Acceptor Beads (25 μg/ml final), and biotinylated Ebox oligo (10 nM final) were added to 384-well plates with a Biotek EL406 liquid handler. 50 nL of compounds from stock plates were added by pin transfer using a Janus Workstation (PerkinElmer), allowing the compounds to interact with c-Myc prior to c-Myc binding with Max. In the current assay, DMSO was not allowed to exceed 2% v/v of the assay. 10 μl of 2× master mix containing streptavidin-coated donor beads (25 μg/ml final) and his6-Max (5 nM) were added. AlphaScreen measurements were performed on an Envision plate reader (PerkinElmer) utilizing the manufacturer's protocol.
Both master mixes were made in room temperature assay buffer (50 mM HEPES, 150 mM NaCl, 0.2% w/v BSA, 0.02% w/v Tween20, 40 μg/ml glycogen, 500 μM DTT, pH 8.0, wherein both DTT and glycogen were added fresh). Alpha beads were added to respective master solutions. All subsequent steps were performed in low light conditions. Solution 1: 2× solution of components with final concentrations of c-Myc Ni-coated Acceptor Beads (25 μg/ml), and biotinylated Ebox oligo (10 nM). Solution 2: 2× solution of streptavidin-coated donor beads (25 μg/ml final) and his6-Max […]. Solution 1 was added to 384-well plate (AlphaPlate-384, PerkinElmer) with Biotek EL406 liquid handler and the plates were centrifuged very briefly. 50 nL of compounds from stock plates were added by pin transfer using a Janus Workstation. Solution 2 (10 μL) was added with the liquid handler. Plates were sealed with foil to block light exposure and prevent evaporation. Plates were very briefly centrifuged followed by 2 hour incubation. AlphaScreen measurements were performed on an Envision 2104 utilizing the manufacturer's protocol. Excitation was at 680 nm for donor bead release of singlet oxygen and emission was read with a bandpass filter from 520-620 nm. Glycogen: Roche Diagnostics #10901393001. Plate 1536: Perkin Elmer, 6004350. Plate 384: Perkin Elmer, 6005350. Nickel-His Alpha Beads: 6760619R. The data from this assay are summarized in Table 3 below (Myc/Max/DNA Activity).
(Alpha assays give light when donor and acceptor beads are brought close together.)
Turning to `CC(=O)Nc1sc2c(c1-c1nc3cnccc3s1)C[C@@H](C)N[C@@H]2C` (single isomer, unassigned) [Compound 110], the IC50 is < 500 nM. On to `CC(=O)Nc1sc2c(c1-c1nc3cnccc3s1)C[C@H](C)N[C@H]2C` (single isomer, unassigned) [Compound 111], for which the IC50 is < 500 nM. For the compound `CCN1C(C)c2sc(NC(C)=O)c(-c3nc4c(C(F)F)nccc4s3)c2C[C@H]1C` (stereo in doubt) [Compound 235, N-((5R,7R)-3-(4-(difluoromethyl)thiazolo[4,5-c]pyridin-2-yl)-6-ethyl-5,7-dimethyl-4,5,6,7-tetrahydrothieno[2,3-c]pyridin-2-yl)acetamide], the IC50 is < 500 nM. In the case of `CC(=O)Nc1sc2c(c1-c1nc3cnccc3s1)CCNC2` [Compound 100, N-(3-(Thiazolo[4,5-c]pyridin-2-yl)-4,5,6,7-tetrahydrothieno[2,3-c]pyridin-2-yl)acetamide], the IC50 is < 500 nM. Regarding `CC(=O)Nc1sc2c(c1-c1nc3cccnc3s1)CCNC2` [Compound 101, N-(3-(thiazolo[5,4-b]pyridin-2-yl)-4,5,6,7-tetrahydrothieno[2,3-c]pyridin-2-yl)acetamide], the IC50 was 500 to 5000 nM. On the same count and under the same terms, as for `O=C(CCN1CCc2[nH]ncc2C1)Nc1sc2c(c1-c1nc3cnccc3s1)CCNC2` [Compound 178], the figure is < 500 nM.

Compound `CC(C)c1nc(CNCCC(=O)Nc2sc3c(c2-c2nc4cnccc4s2)CCNC3)no1` [Compound 179] registered an IC50 of 500 to 5000 nM. For the compound `Cc1nc(CNCCC(=O)Nc2sc3c(c2-c2nc4cnccc4s2)CCNC3)no1` [Compound 180], the IC50 is < 500 nM. Consider `O=C(CCNCc1ncon1)Nc1sc2c(c1-c1nc3cnccc3s1)CCNC2` [Compound 181], for which the IC50 was < 500 nM.

In turn, `Cc1nc(CN(C)CCC(=O)Nc2sc3c(c2-c2nc4cnccc4s2)CCNC3)no1` [Compound 182] registered an IC50 of 500 to 5000 nM.

On to `Cc1ccc(CNCCC(=O)Nc2sc3c(c2-c2nc4cnccc4s2)CCNC3)s1` [Compound 185], for which the IC50 was < 500 nM. In turn, `Cc1ncc(CNCCC(=O)Nc2sc3c(c2-c2nc4cnccc4s2)CCNC3)s1` [Compound 186] yielded an IC50 of 500 to 5000 nM.

With `N[C@@H]1[C@H]2CN(CCC(=O)Nc3sc4c(c3-c3nc5cnccc5s3)CCNC4)C[C@@H]12` [Compound 187], the IC50 was < 500 nM. Consider `O=C(CCNCC1CCNC1)Nc1sc2c(c1-c1nc3cnccc3s1)CCNC2` (centres unmarked) [Compound 188], for which the IC50 was < 500 nM.

Take `O=C(CCNCC1CCOCC1)Nc1sc2c(c1-c1nc3cnccc3s1)CCNC2` [Compound 189]: the IC50 was < 500 nM.

The compound `Cc1cc(CNCCC(=O)Nc2sc3c(c2-c2nc4cnccc4s2)CCNC3)no1` [Compound 191] registered an IC50 of 500 to 5000 nM. With `C[C@@H](NCCC(=O)Nc1sc2c(c1-c1nc3cnccc3s1)CCNC2)c1cnc2ccccn12` [Compound 192], the IC50 is < 500 nM. As for `O=C(CCNCCN1CCNCC1)Nc1sc2c(c1-c1nc3cnccc3s1)CCNC2` [Compound 193], the IC50 was < 500 nM. With `O=C(CCN1CC(F)(F)C1)Nc1sc2c(c1-c1nc3cnccc3s1)CCNC2` [Compound 194], the IC50 fell in the range of 500 to 5000 nM.

Take `NC1CC(NCCC(=O)Nc2sc3c(c2-c2nc4cnccc4s2)CCNC3)C1` (centres unmarked) [Compound 195]: the IC50 was < 500 nM. With `CC1(C#N)CN(CCC(=O)Nc2sc3c(c2-c2nc4cnccc4s2)CCNC3)C1` [Compound 196], the IC50 was 500 to 5000 nM. Same read-out and setting: as for `CC(NCCC(=O)Nc1sc2c(c1-c1nc3cnccc3s1)CCNC2)c1nc2ccccc2[nH]1` (centres unmarked) [Compound 197], the figure is 5000 to 25000 nM.

Compound `O=C(CCN1CCn2nccc2C1)Nc1sc2c(c1-c1nc3cnccc3s1)CCNC2` [Compound 198] came in with an IC50 of 500 to 5000 nM. The compound `Cc1cccc2c1CCN(CCC(=O)Nc1sc3c(c1-c1nc4cnccc4s1)CCNC3)C2` [Compound 199] displayed an IC50 of 500 to 5000 nM. Turning to `O=C(CCNCc1[nH]nc2c1CNC2)Nc1sc2c(c1-c1nc3cnccc3s1)CCNC2` [Compound 200], the IC50 is < 500 nM. The same measure, in the same setting: to `CC(NCCC(=O)Nc1sc2c(c1-c1nc3cnccc3s1)CCNC2)c1ncc[nH]1` (centres unmarked) [Compound 201] belongs < 500 nM; to `NC(=O)C1(CNCCC(=O)Nc2sc3c(c2-c2nc4cnccc4s2)CCNC3)CCOCC1` [Compound 202], < 500 nM. The same measure, in the same setting: as for `O=C(CCN[C@H]1CC[C@@H](O)C1)Nc1sc2c(c1-c1nc3cnccc3s1)CCNC2` [Compound 204], the figure is < 500 nM. Compound `CN(CCC(=O)Nc1sc2c(c1-c1nc3cnccc3s1)CCNC2)Cc1nc2ccccc2s1` [Compound 205] returned a half-inhibitory concentration (IC50) of 5000 to 25000 nM.

`O=C(CCNC[C@H]1CC2(CCNCC2)CO1)Nc1sc2c(c1-c1nc3cnccc3s1)CCNC2` [Compound 207]: the half-maximal inhibitory concentration (IC50) is < 500 nM. Regarding `O=C(CCN1CCC2OCCC2C1)Nc1sc2c(c1-c1nc3cnccc3s1)CCNC2` (centres unmarked) [Compound 208], the IC50 was < 500 nM. In the case of `O=C(CCNCc1noc2c1CNCC2)Nc1sc2c(c1-c1nc3cnccc3s1)CCNC2` [Compound 209], the IC50 fell in the range of 500 to 5000 nM.

For `O=C(CCNCC1(O)CC1)Nc1sc2c(c1-c1nc3cnccc3s1)CCNC2` [Compound 210], the IC50 was < 500 nM. Same read-out and setting: as for `O=C(CCN[C@H]1[C@@H]2CNC[C@@H]21)Nc1sc2c(c1-c1nc3cnccc3s1)CCNC2` [Compound 211], the figure is < 500 nM; as for `O=C(CCNCc1cnc2ccccn12)Nc1sc2c(c1-c1nc3cnccc3s1)CCNC2` [Compound 212], 5000 to 25000 nM. As to `O=C(CCN1CCC2COCC2C1)Nc1sc2c(c1-c1nc3cnccc3s1)CCNC2` (centres unmarked) [Compound 213], the IC50 is < 500 nM.

Consider `CN(CCC(=O)Nc1sc2c(c1-c1nc3cnccc3s1)CCNC2)Cc1ccc2[nH]ccc2c1` [Compound 214], for which the IC50 is < 500 nM. For `O=C(CCNCc1ncc[nH]1)Nc1sc2c(c1-c1nc3cnccc3s1)CCNC2` [Compound 215], the IC50 was < 500 nM. Still for that read-out and setting: to `O=C(CCNC1CC1)Nc1sc2c(c1-c1nc3cnccc3s1)CCNC2` [Compound 221, 3-(cyclopropylamino)-N-(3-(thiazolo[4,5-c]pyridin-2-yl)-4,5,6,7-tetrahydrothieno[2,3-c]pyridin-2-yl)propanamide] belongs < 500 nM; to `O=C(CCNC1CCC1)Nc1sc2c(c1-c1nc3cnccc3s1)CCNC2` [Compound 222, 3-(cyclobutylamino)-N-(3-(thiazolo[4,5-c]pyridin-2-yl)-4,5,6,7-tetrahydrothieno[2,3-c]pyridin-2-yl)propanamide], < 500 nM; to `CCN1CCc2c(sc(NC(C)=O)c2-c2nc3cnccc3s2)[C@H]1C` [Compound 229, (R)—N-(6-ethyl-7-methyl-3-(thiazolo[4,5-c]pyridin-2-yl)-4,5,6,7-tetrahydrothieno[2,3-c]pyridin-2-yl)acetamide], 5000 to 25000 nM. Same read-out and setting: to `COCCNCCC(=O)Nc1sc2c(c1-c1nc3cncnc3s1)CCNC2` [Compound 252] belongs > 25000 nM; to `CCN1[C@H](C)c2sc(NC(C)=O)c(-c3nc4cnccc4s3)c2C[C@@H]1C` [Compound 253], < 500 nM; to `CCN1[C@H](C)Cc2c(sc(NC(C)=O)c2-c2nc3cnccc3s2)[C@@H]1C` [Compound 254], > 25000 nM.

These data come from US11753418B2, “Compounds for the modulation of Myc activity” (Syros Pharmaceuticals, Inc., priority 2015, dated 2023).
